Patent US10420850B2, “Method of imaging with a chelating agent” (ENDOCYTE, INC., priority 2015, dated 2019)

Test system: FR positive human xenograft models
Experiment: Mouse imaging: ^99mTc biodistribution and microSPECT/CT
Assay type: in vivo
Conditions: intravenous, tumor-bearing mice
Protocol: Etarfolatide kits were used for the preparation of ^99mTc-chelated radioactive drug substance. Radiochemical purity of ^99mTc-etarfolatide was determined by HPLC attached to a radiodetector. ^99mTc-etarfolatide was investigated in vivo using mice bearing FR positive human xenograft models. Test articles were administered intravenously in mice via the lateral tail vein. ^99mTc biodistribution was determined by removing selected tissues and measuring their radioactivity content in an automatic gamma-counter. High resolution three dimensional images of the radiolabel were obtained on a dual microSPECT/CT system.

For [NH-][C@@H](CNC(=O)CC[C@@H](NC(=O)c1ccc(NCc2cnc3nc(N)[nH]c(=O)c3n2)cc1)C(=O)O)C(=O)[N-][C@@H](CC(=O)O)C(=O)[N-][C@@H](C[S-])C(=O)O.[O]=[Tc+4] [^99mTc-etarfolatide], the “Time after which levels in normal FR-negative tissues had cleared to near baseline” value was 4 to 8 h, the “Time tumor retention remained near maximum” value was “approximately 18 hours” and the “Time of peak tissue levels post injection” value (FR-expressing tumor and kidney) was 1 h.
